Data taken from patent publication US20020182239A1, “Composition and method for inhibiting polar capsule discharge and protecting a subject from nematocyst sting” (priority 2002, published 2002).
Like-named read-outs stand apart in the source and are kept apart here.

Assays:
[1] = tested on: isolated nematocyst capsules; conditions: 50 mM CaCl2; cited from earlier work
[2] = tested on: jellyfish Rhopilema nomadica nematocysts

Compound: [Ca+2].[Cl-].[Cl-] [CaCl2]
- discharge of isolated nematocyst capsules [1]: do not discharge

Compound: C=O [formalin]
- nematocysts in skin treated with ointment base alone relative to skin treated with formalin ([2]; 0.1% formalin): more than 5 times
- decrease in nematocysts skin penetration ([2]; 0.1% formalin in ointment base vs ointment base alone): over 80%
- nematocyst discharge and skin penetration ([2]; formalin concentration 0.01%): reduces nematocyst discharge and skin penetration
- nematocyst discharge and skin penetration ([2]; formalin concentration 0.05%): reduces nematocyst discharge and skin penetration
- average number of nematocysts counted on a skin sample ([2]; ointment base containing 0.1% formalin, human skin sections, tentacles 10 seconds): 5+/−4 nematocysts
